Assay results: patent US8207156B2, “Substituted pyrazoline compounds, their preparation and use as medicaments” (Laboratorios Del Dr. Esteve, S.A., priority 2005, dated 2012)

Experiments:
CB1 receptor [1] = target: T1, CB1 receptor (UniProt P20272); assay: In-vitro determination of affinity to CB1/CB2-receptors (radioligand [3H]-CP55940 binding)
T1 construct: other: compound at 10^−7 M; radioligand [3H]-CP55940; other: compound at 10^−8 M
Method in brief: (§1)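 Transfected human CB1/CB2 receptors were tested with [3H]-CP55940. In the modified Govaerts method, rat cerebellum membranes (100 µg protein) were incubated with 1 nM [3H]-CP55940 and compound for 1 h at 30 °C in Tris-HCl/MgCl2/EDTA/0.5% BSA, pH 7.4, with 10 µM HU-210 defining non-specific binding. Filter-bound radioactivity was counted in triplicate and analysed by non-linear regression.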

CB1 receptor [2] = target: T2, CB1 receptor; assay: as above; settings: binding data per pharmacological methods part I, table does not say whether human transfected receptor or rat cerebellum
T2 construct: IC50 [nM]; radioligand [3H]-CP55940
Method in brief: as §1

[3] = target: recombinant human cannabinoid 1 receptor (CB1) (Homo sapiens, UniProt P21554); assay: In vitro determination of antagonism to CB1-receptor ([35S]GTPγS binding assay, CHO cell membranes); type: biochemical; settings: compound at 1 μM against agonist WIN 55,212-2 (3 nM to 3 μM); effect of Rimonabant (1 μM) defined as 100%
recombinant human cannabinoid 1 receptor (CB1), sequence (P21554 whole entry): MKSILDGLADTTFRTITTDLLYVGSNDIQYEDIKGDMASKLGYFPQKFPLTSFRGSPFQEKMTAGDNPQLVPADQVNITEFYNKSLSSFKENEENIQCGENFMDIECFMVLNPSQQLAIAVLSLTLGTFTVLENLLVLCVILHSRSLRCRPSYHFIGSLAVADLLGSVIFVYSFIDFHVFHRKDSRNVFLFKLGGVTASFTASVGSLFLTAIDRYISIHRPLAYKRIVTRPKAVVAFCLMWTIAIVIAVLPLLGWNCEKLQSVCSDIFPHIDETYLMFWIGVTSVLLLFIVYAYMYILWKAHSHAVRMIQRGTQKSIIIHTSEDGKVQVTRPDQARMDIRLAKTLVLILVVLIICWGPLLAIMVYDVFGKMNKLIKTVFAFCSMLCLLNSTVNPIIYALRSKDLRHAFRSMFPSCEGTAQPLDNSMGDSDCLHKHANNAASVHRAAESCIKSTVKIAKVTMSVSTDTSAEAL
Method in brief: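 Membranes from CHO cells stably expressing human CB1 (15 μg protein/well) incubated 60 min at 30° C., pH 7.4, with 5 μM GDP, saponin and 0.5 nM [35S]GTPγS, compound at 1 μM final, with or without WIN 55,212-2 (3 nM–3 μM). Bound radioactivity via filtration; basal subtracted, antagonism scaled to WIN 55,212-2 ± Rimonabant (1 μM) window as 100%.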

SMILES | Inhibition [%], 10^−7 M (CB1 receptor [1]; compound at 10^−7 M) [%] | Inhibition [%], 10^−8 M (CB1 receptor [1]; compound at 10^−8 M) [%] | IC50 (CB1 receptor [2]) [nM] | Antagonism [%] [3] [%] | IC50 (CB1 receptor [2]; hydrochloride) [nM]
CC1Cc2ccccc2N1NC(=O)C1=NN(c2ccc(Cl)cc2Cl)C(c2ccc(Cl)cc2)C1 (stereo not shown) [Example 27, 5-(4-Chloro-phenyl)-1-(2,4-dichloro-phenyl)-4,5-dihydro-1H-pyrazole-3-carboxylic acid (2-methyl-2,3-dihydro-indol-1-yl)-amide] | 50.7 | 32.9 | 117 | 31 | –
O=C(NC1CCCc2ccccc21)C1=NN(c2ccc(Cl)cc2Cl)C(c2ccc(Cl)cc2)C1 (stereo not shown) [Example 76, 5-(4-Chloro-phenyl)-1-(2,4-dichloro-phenyl)-4,5-dihydro-1H-pyrazole-3-carboxylic acid (1,2,3,4-tetrahydro-naphthalen-1-yl)-amide] | – | – | 398 | 57 | –
C[C@@H]1CN(C(=O)C2=NN(c3ccc(Cl)cc3Cl)C(c3ccc(Cl)cc3)C2)C[C@H](C)O1 (stereo partly shown) [Example 80, [5-(4-Chloro-phenyl)-1-(2,4-dichloro-phenyl)-4,5-dihydro-1H-pyrazol-3-yl]-(2,6-dimethyl-morpholin-4-yl)-methanone] | – | – | 501 | 56 | –
O=C(C1=NN(c2ccc(Cl)cc2Cl)C(c2ccc(Cl)cc2)C1)N1CCCc2ccccc21 (stereo not shown) [Example 81, [5-(4-Chloro-phenyl)-1-(2,4-dichloro-phenyl)-4,5-dihydro-1H-pyrazol-3-yl]-(3,4-dihydro-2H-quinolin-1-yl)-methanone] | – | – | 708 | 20 | –

Further lines, results first:

Inhibition [%], 10^−7 M (CB1 receptor [1]; compound at 10^−7 M) [%] | Inhibition [%], 10^−8 M (CB1 receptor [1]; compound at 10^−8 M) [%] | IC50 (CB1 receptor [2]) [nM] | Antagonism [%] [3] [%] | IC50 (CB1 receptor [2]; hydrochloride) [nM] | SMILES
– | – | > 1000 | 42 | – | O=C(C1=NN(c2ccc(Cl)cc2Cl)C(c2ccc(Cl)cc2)C1)N1C=NCCC1 (stereo not shown) [Example 75, [5-(4-Chloro-phenyl)-1-(2,4-dichloro-phenyl)-4,5-dihydro-1H-pyrazol-3-yl]-(5,6-dihydro-4H-pyrimidin-1-yl)-methanone]
– | – | 20 | 112 | – | COc1ccc(C2CC(C(=O)NN3CCCCC3)=NN2c2ccc(Cl)cc2Cl)cc1 (stereo not shown) [Example 106A, 1-(2,4-Dichloro-phenyl)-5-(4-methoxy-phenyl)-4,5-dihydro-1H-pyrazole-3-carboxylic acid piperidin-1-ylamide]
– | – | – | 63 | 501 | CC1CCCC(C)N1NC(=O)C1=NN(c2ccc(Cl)cc2Cl)C(c2ccc(Cl)cc2)C1.Cl (stereo not shown) [Example 192, 5-(4-Chloro-phenyl)-1-(2,4-dichloro-phenyl)-4,5-dihydro-1H-pyrazole-3-carboxylic acid (2,6-dimethyl-piperidin-1-yl)-amide hydrochloride]
